From patent US20070149456A1, “Epithelial sodium channel inhibiting agents and uses therefor” (University of Pittsburgh, priority 2005, published 2007)
pIC50, pKi: −log10 of the molar value. Several values for one entry are separate records, joined by “and”; a condition that tells them apart may be missing. Identical values can stand only once. Entries after “also recorded” stand apart in the source; their conditions may differ. Like-named read-outs stand apart in the source and are kept apart here.

What was measured:
[1] = biological target: T1, endogenous ENaC in HAE cells (Homo sapiens, UniProt P37088+P51168+P51170); assay: Amiloride-sensitive short circuit current in primary human airway epithelial (HAE) cell monolayers, Ussing chamber; format: cell-based; details: for pKi: HBE cells; for inhibition of amiloride sensitive short circuit currents: HAE, increasing concentrations of peptide
T1 construct: endogenous in cells; host or cells: primary human airway (bronchial) epithelial cells from transplant or donor lungs
T1 sequence (P37088 1-178): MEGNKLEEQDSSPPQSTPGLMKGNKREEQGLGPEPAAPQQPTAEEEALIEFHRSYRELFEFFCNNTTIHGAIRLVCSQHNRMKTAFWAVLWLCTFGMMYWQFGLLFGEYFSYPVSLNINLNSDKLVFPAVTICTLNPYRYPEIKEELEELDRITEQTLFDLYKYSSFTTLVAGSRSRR
T1 sequence (P37088 205-669): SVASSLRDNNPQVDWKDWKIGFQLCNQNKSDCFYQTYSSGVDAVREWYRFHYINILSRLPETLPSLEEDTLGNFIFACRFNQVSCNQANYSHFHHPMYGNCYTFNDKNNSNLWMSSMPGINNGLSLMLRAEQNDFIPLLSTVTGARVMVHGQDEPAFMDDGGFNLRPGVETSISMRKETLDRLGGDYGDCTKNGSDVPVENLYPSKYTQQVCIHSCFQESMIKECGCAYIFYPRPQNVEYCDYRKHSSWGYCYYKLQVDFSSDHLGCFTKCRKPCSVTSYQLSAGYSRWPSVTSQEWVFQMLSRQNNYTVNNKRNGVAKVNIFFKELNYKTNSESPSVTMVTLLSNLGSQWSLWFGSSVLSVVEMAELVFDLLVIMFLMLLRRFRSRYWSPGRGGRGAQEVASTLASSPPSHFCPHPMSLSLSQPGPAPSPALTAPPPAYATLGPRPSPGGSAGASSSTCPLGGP
T1 sequence (P51168 whole entry): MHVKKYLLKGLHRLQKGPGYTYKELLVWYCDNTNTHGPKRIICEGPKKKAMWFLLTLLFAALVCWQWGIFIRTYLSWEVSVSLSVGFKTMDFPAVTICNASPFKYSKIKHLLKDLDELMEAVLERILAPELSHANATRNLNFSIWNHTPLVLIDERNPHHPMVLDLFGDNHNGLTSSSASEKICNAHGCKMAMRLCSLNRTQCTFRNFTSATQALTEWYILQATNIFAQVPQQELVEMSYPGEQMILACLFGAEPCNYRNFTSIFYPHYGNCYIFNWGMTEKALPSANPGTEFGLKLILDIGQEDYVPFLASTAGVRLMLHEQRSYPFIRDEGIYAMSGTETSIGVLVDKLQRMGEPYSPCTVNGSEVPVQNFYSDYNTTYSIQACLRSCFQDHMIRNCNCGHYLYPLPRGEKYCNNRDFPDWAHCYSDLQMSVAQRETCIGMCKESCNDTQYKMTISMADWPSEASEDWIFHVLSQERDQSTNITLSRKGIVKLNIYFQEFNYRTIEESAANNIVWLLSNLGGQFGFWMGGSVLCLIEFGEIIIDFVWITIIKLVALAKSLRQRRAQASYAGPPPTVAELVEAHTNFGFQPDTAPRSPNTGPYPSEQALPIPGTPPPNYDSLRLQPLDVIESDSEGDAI
T1 sequence (P51170 1-138): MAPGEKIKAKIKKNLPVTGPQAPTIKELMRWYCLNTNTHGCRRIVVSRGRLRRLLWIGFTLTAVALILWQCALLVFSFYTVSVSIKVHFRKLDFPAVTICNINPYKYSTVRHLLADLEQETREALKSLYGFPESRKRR
T1 sequence (P51170 182-649): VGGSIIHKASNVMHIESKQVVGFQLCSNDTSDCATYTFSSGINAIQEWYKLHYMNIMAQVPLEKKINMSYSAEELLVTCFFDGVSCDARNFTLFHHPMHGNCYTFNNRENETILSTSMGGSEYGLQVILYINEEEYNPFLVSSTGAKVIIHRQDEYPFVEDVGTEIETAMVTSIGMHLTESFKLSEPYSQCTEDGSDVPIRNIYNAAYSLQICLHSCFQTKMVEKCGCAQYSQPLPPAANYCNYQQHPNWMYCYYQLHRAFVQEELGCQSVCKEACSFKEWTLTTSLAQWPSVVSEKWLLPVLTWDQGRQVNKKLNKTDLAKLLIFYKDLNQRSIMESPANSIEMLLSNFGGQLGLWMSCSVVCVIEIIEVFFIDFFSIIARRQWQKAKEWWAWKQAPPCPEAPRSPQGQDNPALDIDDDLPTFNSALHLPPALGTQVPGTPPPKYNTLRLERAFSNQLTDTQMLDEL
Excerpt: Primary Cultures of HAE Cells—HAE cells were obtained from excess pathological tissue remaining after lung transplantation or from organ donor lungs deemed not suitable for transplantation under a protocol approved by the University of Pittsburgh […] Review Board. All cells were isolated from second through sixth generation bronchi and grown on permeable Transwell supports (Coming Inc.) as previously described (Devor, D. C., and Pilewski, J. M. (1999), UTP inhibits Na^+ absorption in wild-type and DeltaF508 CFTR-expressing human bronchial epithelia, Am. J. Physiol. 276, C827-C837 31. ).
Short Circuit Current Measurements—Cell culture inserts were mounted in modified Ussing chambers (Harvard Apparatus, Holliston, Mass.), and the monolayers were continuously short-circuited with a voltage/current clamp system (Physiologic Instruments, San Diego, Calif.). A 2-mV bipolar pulse was applied periodically to measure the resistance of the monolayer. As previously described by Bridges et al. (Bridges, R. J., Newton, B. B., Pilewski, J. M., Devor, D. C., Poll, C. T., and Hall, R. L. (2001), Na+ transport in normal and CF human bronchial epithelial cells is inhibited by BAY 39-9437, Am. J. Physiol. 281, L16-L23 32, Na^+ transport in normal and CF human bronchial epithelial cells is inhibited by BAY 39-9437), the bath solution contained (in mM) 120 NaCl, 25 NaHCO3, 3.3 KH2PO4, 0.8 K2HPO4, 1.2 MgCl2, 1.2 CaCl2, and 10 glucose. The pH of this solution was 7.4 when gassed with a mixture of 95% O2-5% CO2 at 37° C.
Primary cultures of HAE cells grown on permeable membrane supports and mounted in modified Ussing chambers were continuously short-circuited by a voltage clamp amplifier (Physiologic Instruments, San Diego, Calif.). Monolayers were exposed to increasing concentrations of either the γ-peptide (closed circles) or a scrambled peptide (open circles). […] (n=8-9).
Vectors and Cell Culture—Wild-type, C-terminal and double epitope tagged mouse ENaC subunit cDNAs were previously described (Hughey, R. P., Mueller, G. M., Bruns, J. B., Kinlough, C. L., Poland, P. A., Harkleroad, K. L., Carattino, M. D., and Kleyman, T. R. (2003) J Biol Chem 278, 37073-37082 and Ahn, Y. J., Brooker, D. R., Kosari, F., Harte, B. J., Li, J., Mackler, S. A., and Kleyman, T. R. (1999), Cloning and functional expression of the mouse epithelial sodium channel, Am J Physiol 277, F121-129). The γ subunit mutations were generated in pcDNA3.1 (+) using a standard two-step PCR method. A cDNA clone (IMAGE #: 3600399) encoding full length mouse prostasin was obtained from Open Biosystems (Huntsville, Ala.) and sub-cloned into pcDNA3.1 (+) (Invitrogen, Carlsbad, Calif.). MDCK type 1 cells were a gift from Barry M. Gumbiner (Memorial Sloan-Kettering Cancer Center, New York) and were cultured as previously described (Lavelle, J. P., Negrete, H. O., Poland, P. A., Kinlough, C. L., Meyers, S. D., Hughey, R. P., and Zeidel, M. L. (1997), Low permeabilities of MDCK cell monolayers: a model barrier epithelium, Am J Physiol 273, F67-75). CCD (mpkCCDc14) cells were a gift from Alain Vandewalle (Institut National de la Santéet de la Recherche Médicale, Paris, France) and were cultured as previously described (Bens, M., Vallet, V., Cluzeaud, F., Pascual-Letallec, L., Kahn, A., Rafestin-Oblin, M. E., Rossier, B. C., and Vandewalle, A. (1999) J Am Soc Nephrol 10, 923-934). HAE cells were isolated and cultured as described (Devor, D. C., Bridges, R. J., and Pilewski, J. M. (2000), Pharmacological modulation of ion transport across wild-type and DeltaF508 CFTR-expressing human bronchial epithelia, Am J Physiol Cell Physiol 279, C461-479). […]

αR205A,Δ206-231βγ = assay: Two-electrode voltage clamp in oocytes expressing channels lacking furin cleavage and the tract αAsp-206-Arg-231; format: cell-based, mouse; details: 1 μM α-26
Excerpt: Oocyte Expression—cRNAs for α, β, γ mouse ENaC (wild-type and mutant) subunits and mouse prostasin were synthesized with T3 or T7 m-Message mMachineTM (Ambion, Austin, Tex.). Subunits carrying furin cleavage consensus site mutations and the corresponding wild-type subunits have amino-terminal HA and carboxyl-terminal V5 tags (Hughey, R. P., Bruns, J. B., Kinlough, C. L., Harkleroad, K. L., Tong, Q., Carattino, M. D., Johnson, J. P., Stockand, J. D., and Kleyman, T. R. (2004) J. Biol. Chem. 279, 18111-18114 18). Stage V-VI Xenopus laevis oocytes were pretreated with 1.5 mg/ml of type IV collagenase and injected with 0.5-2 ng of cRNA/subunit. Injected oocytes were maintained as previously reported (Carattino, M. D., Hill, W. G., and Kleyman, T. R. (2003), Arachidonic Acid Regulates Surface Expression of Epithelial Sodium Channels, J Biol. Chem. 278, 36202-36213 29).
Two-electrode Voltage Clamp—Two-electrode voltage clamp (TEV) was performed as previously described (Carattino, M. D., Hill, W. G., and Kleyman, T. R. (2003) J Biol. Chem. 278, 36202-36213 29). The extracellular solution (TEV solution) was (in mM): 110 NaCl, 2 KCl, 1.54 CaCl2, 10 HEPES, pH 7.4, or otherwise as indicated. […] ENaC-mediated whole cell Na^+ currents, at −60 mV,were defined as the amiloride-sensitive component of the current. […]

[2] = biological target: T2, endogenous ENaC in mpkCCDc14 cells (Mus musculus, UniProt Q61180+Q9WU38+Q9WU39); details: mouse CCD cells; stated jointly with human airway; Carattino 2006; read-out: IC50, inhibition of ENaC activity; cited from earlier work
T2 construct: endogenous ENaC in a mouse cortical collecting duct (mpkCCDc14) cell line; endogenous in cells; host or cells: mpkCCDc14 mouse cortical collecting duct cell line
T2 sequence (Q61180 1-205): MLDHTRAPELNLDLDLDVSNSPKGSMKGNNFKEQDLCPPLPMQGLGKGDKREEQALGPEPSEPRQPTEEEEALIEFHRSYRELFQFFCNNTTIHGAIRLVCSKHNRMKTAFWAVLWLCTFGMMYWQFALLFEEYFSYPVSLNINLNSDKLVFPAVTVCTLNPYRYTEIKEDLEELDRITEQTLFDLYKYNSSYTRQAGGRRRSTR
T2 sequence (Q61180 232-699): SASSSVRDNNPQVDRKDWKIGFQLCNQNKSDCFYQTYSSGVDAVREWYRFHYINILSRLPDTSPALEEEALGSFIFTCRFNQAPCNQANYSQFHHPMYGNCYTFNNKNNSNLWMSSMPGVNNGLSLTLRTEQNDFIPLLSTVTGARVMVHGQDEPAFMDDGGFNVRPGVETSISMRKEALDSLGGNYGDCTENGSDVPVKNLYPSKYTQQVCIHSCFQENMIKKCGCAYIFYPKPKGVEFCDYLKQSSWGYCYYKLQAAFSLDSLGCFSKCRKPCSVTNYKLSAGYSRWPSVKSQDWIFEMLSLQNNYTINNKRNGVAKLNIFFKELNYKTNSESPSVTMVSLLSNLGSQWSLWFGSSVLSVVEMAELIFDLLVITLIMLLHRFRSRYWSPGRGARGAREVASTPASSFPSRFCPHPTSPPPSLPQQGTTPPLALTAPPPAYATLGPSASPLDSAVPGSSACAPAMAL
T2 sequence (Q9WU38 whole entry): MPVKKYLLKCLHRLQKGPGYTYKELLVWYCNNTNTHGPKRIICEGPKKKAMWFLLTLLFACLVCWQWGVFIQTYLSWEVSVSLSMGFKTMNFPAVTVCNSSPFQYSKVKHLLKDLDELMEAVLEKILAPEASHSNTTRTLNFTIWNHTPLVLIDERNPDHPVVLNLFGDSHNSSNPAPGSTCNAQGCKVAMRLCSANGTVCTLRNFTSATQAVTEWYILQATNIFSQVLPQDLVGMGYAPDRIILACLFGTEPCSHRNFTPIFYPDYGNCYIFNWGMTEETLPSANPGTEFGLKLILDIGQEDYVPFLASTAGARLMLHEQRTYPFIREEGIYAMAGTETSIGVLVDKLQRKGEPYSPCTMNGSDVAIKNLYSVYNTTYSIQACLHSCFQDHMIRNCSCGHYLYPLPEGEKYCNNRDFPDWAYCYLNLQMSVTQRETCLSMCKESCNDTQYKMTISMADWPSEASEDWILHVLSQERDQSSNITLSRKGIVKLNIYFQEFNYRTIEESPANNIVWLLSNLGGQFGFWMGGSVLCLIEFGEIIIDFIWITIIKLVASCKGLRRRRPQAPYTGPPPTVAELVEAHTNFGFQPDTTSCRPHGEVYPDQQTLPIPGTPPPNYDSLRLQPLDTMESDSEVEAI
T2 sequence (Q9WU39 1-143): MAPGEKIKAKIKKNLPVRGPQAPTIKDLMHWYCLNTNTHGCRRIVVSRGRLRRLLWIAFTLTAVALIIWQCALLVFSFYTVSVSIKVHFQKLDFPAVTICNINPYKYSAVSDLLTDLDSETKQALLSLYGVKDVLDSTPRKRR
T2 sequence (Q9WU39 187-655): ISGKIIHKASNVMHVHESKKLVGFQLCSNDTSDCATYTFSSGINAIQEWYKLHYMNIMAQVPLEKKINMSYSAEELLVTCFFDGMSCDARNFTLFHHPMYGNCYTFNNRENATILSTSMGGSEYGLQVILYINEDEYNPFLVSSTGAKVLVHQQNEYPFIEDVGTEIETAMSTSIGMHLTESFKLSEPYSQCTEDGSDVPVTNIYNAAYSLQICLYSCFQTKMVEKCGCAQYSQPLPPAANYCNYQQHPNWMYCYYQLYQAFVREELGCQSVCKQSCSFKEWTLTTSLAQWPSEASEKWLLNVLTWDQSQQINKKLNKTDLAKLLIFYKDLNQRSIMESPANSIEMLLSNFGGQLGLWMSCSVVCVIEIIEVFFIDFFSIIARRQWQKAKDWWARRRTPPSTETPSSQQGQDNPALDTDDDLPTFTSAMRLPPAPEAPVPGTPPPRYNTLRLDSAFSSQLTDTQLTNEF

Substance	pKi ([1]; stated jointly for HBE or mpkCCDc14, read-out: Ki, block of endogenous ENaC activity)	block of channels (αR205A,Δ206-231βγ)	pIC50 [2]	pIC50 ([1]; HAE primary cultures, nonlinear curve fitting, read-out: IC50, inhibition of short circuit currents)	inhibition of amiloride sensitive short circuit currents ([1]; listed as γ cleavage product)	inhibition of amiloride sensitive short circuit currents ([1]; listed as γ-peptide)	pKi ([1]; stated jointly for HBE and mpkCCDc14, read-out: apparent Ki, inhibition of endogenous ENaC activity)
Ac-DLRGALPHPLQRLRTPPPPNPARSAR-NH2 [α-26]	4.00 to 4.30	does not block; also recorded: not blocked	4.00 to 4.30				
Ac-EAGSMRSTWEGTPPRFLNLIPLLVFNENEKGKARDFFTGRKRK-NH2 [γ-43]				5.70 and 5.52 to 5.70	inhibited in a dose dependent manner	potent inhibitor; also recorded: strong inhibition	~5.70
